From patent US20250223276A1, “Substituted Pyrrolidinyl And Piperidinyl Compounds And Related Methods Of Treatment” (Alkermes, Inc., priority 2022, published 2025)

Target: T1, human orexin-2 receptor (OX2R) (Homo sapiens, UniProt O43614)
T1 construct: expressed in transfected cells
T1 sequence (O43614 1-444): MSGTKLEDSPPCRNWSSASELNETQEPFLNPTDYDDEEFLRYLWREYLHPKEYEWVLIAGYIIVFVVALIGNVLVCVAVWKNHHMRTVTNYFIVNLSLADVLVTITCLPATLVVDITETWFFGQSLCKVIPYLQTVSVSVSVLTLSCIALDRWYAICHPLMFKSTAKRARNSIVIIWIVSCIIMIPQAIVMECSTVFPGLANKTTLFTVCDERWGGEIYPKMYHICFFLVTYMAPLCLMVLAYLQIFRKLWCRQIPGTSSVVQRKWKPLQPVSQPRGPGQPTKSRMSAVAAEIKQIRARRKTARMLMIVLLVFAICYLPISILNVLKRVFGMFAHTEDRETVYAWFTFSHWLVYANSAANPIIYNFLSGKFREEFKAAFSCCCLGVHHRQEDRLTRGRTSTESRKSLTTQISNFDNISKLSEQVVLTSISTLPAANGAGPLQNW
Assay: Human OX2R IP1 assay
Assay type: cell-based
Conditions: T-Rex CHO cells stably overexpressing human OX2R; IP1 (inositol monophosphate) accumulation, HTRF; 1 hr at 37 degrees C
Experimental: T-Rex CHO cells stably overexpressing the human orexin-2 receptor (OX2R) are induced overnight with 1 μg/mL of doxycycline in a T225 flask. 24 hours post induction, cells are lifted with accutase and plated into a 384-well proxy plate at 30,000 cells/well. Cells are then treated with different test compounds in 1× stimulation buffer containing 10 mM Hepes, 1 mM CaCl2), 0.5 mM MgCl2, 4.2 mM KCl, 146 mM NaCl, 5.5 mM glucose, and 50 mM LiCl, pH 7.4, for 1 hr at 37 degrees C. Following incubation, the reaction is terminated by the addition of detection mix, which is composed of IP1-d2 and anti-IP1-cryptate diluted in lysis buffer as well as 1× stimulation buffer. The plates are allowed to incubate for 1 hour at room temperature and are then read in the En Vision® multimode plate reader, measuring inositol phosphate levels.
Cisbio IP1 is a cell-based functional assay quantifying the accumulation of inositol monophosphate (IP), a metabolite released as a result of orexin 2 receptor activation through the phospholipase C-Gq signaling pathway. This is a competitive immunoassay in which the IP1 produced by the cells upon receptor activation competes with the IP1 analog coupled to the d2 fluorophore (acceptor) for binding to an anti-IP1 monoclonal antibody labeled with Eu cryptate (donor). The measured HTRF-FRET based signal is inversely proportional to the IP1 concentration produced.
The EC50 values reported in Table 2 were obtained according to the human OX2R IP1 assay described above. Data are the mean EC50 values±S.E.M.

SMILES	EC50 [µM]
O=S(=O)(N[C@H]1CCN(c2cccnn2)C[C@H]1CO[C@H]1CC[C@@H](c2cccc(F)c2)CC1)N1CC(F)C1 [Compound 18]	0.1 to 1
O=S(=O)(N[C@H]1CCN(c2cccnn2)C[C@H]1CO[C@H]1CC[C@@H](c2cccc(F)c2)CC1)N1CC(CF)C1 [Compound 28]	> 1
CC(C)S(=O)(=O)N[C@H]1CCN(c2cccnn2)C[C@H]1CO[C@H]1CC[C@@H](c2cccc(F)c2)CC1 [Compound 21]	< 0.1
CN1CCCC1C(=O)N1CC[C@H](NS(=O)(=O)N(C)C)[C@H](CO[C@H]2CC[C@@H](c3cccc(F)c3)CC2)C1 (stereo partly drawn) [Compound 51]	> 1
CN(C)S(=O)(=O)N[C@H]1CCN(C(=O)[C@@H]2CCOC2)C[C@H]1CO[C@H]1CC[C@@H](c2cccc(F)c2)CC1 [Compound 5]	< 0.1
CC1CN(S(=O)(=O)N[C@H]2CCN(c3cccnn3)C[C@H]2CO[C@H]2CC[C@@H](c3cccc(F)c3)CC2)C1 [Compound 23]	> 1
CN(C)S(=O)(=O)N[C@H]1CCN(C(=O)[C@H]2C[C@@H](F)C2)C[C@H]1CO[C@H]1CC[C@@H](c2cccc(F)c2)CC1 [Compound 53]	< 0.1
O=S(=O)(N[C@H]1CCN(c2cccnn2)C[C@H]1CO[C@H]1CC[C@@H](c2cccc(F)c2)CC1)N1CC2(COC2)C1 [Compound 34]	> 1
O=S(=O)(N[C@H]1CCN(c2cccnn2)C[C@H]1CO[C@H]1CC[C@@H](c2cccc(F)c2)CC1)N1CC(C(F)F)C1 [Compound 25]	> 1
O=C(NC1CCN(c2cccnn2)CC1CO[C@H]1CC[C@@H](c2cccc(F)c2)CC1)C(F)(F)F (stereo partly drawn) [Compound 67]	> 1
CN(C)S(=O)(=O)N[C@H]1CCN(C(=O)C2CNC(=O)C2)C[C@H]1CO[C@H]1CC[C@@H](c2cccc(F)c2)CC1 (stereo partly drawn) [Compound 52]	> 1
COCCN(C)S(=O)(=O)N[C@H]1CCN(c2cccnn2)C[C@H]1CO[C@H]1CC[C@@H](c2cccc(F)c2)CC1 [Compound 63]	> 1
CN(C)S(=O)(=O)N[C@H]1CCN(C(=O)[C@H]2C[C@H](F)C2)C[C@H]1CO[C@H]1CC[C@@H](c2cccc(F)c2)CC1 [Compound 54]	< 0.1
O=S(=O)(N[C@H]1CCN(c2cccnn2)C[C@H]1CO[C@H]1CC[C@@H](c2cccc(F)c2)CC1)C(F)F [Compound 11]	< 0.1
CN(C)S(=O)(=O)N[C@H]1CCN(C(=O)OC2CC2)C[C@H]1CO[C@H]1CC[C@@H](c2cccc(F)c2)CC1 [Compound 60]	> 1
CN(C)S(=O)(=O)N[C@H]1CCN(C(=O)N2CCC(F)(F)C2)C[C@H]1CO[C@H]1CC[C@@H](c2cccc(F)c2)CC1 [Compound 61]	< 0.1
CN(C)S(=O)(=O)N[C@H]1CCN(C(=O)OCC(F)F)C[C@H]1CO[C@H]1CC[C@@H](c2cccc(F)c2)CC1 [Compound 48]	< 0.1
O=S(=O)(N[C@H]1CCN(c2cccnn2)C[C@H]1CO[C@H]1CC[C@@H](c2cccc(F)c2)CC1)N1CC(C(F)(F)F)C1 [Compound 22]	> 1
CN(C)S(=O)(=O)N[C@H]1CCN(C(=O)c2cnco2)C[C@H]1CO[C@H]1CC[C@@H](c2cccc(F)c2)CC1 [Compound 44]	< 0.1
CC(C)N(C)[C@H]1CCN(S(=O)(=O)N[C@H]2CCN(c3cccnn3)C[C@H]2CO[C@H]2CC[C@@H](c3cccc(F)c3)CC2)C1 [Compound 56]	> 1
CN1CC(OC(=O)N2CC[C@H](NS(=O)(=O)N(C)C)[C@H](CO[C@H]3CC[C@@H](c4cccc(F)c4)CC3)C2)C1 [Compound 59]	> 1
CN(C)S(=O)(=O)N[C@H]1CCN(c2cccnn2)C[C@H]1CO[C@H]1CC[C@@H](c2cccc(F)c2)CC1 [Compound 2]	< 0.1
CC(C)OC(=O)N1CC[C@H](NS(=O)(=O)N(C)C)[C@H](CO[C@H]2CC[C@@H](c3cccc(F)c3)CC2)C1 [Compound 50]	0.1 to 1

SMILES	EC50 [µM]
C[C@@H](OC(=O)N1CC[C@H](NS(=O)(=O)N(C)C)[C@H](CO[C@H]2CC[C@@H](c3cccc(F)c3)CC2)C1)C(F)F [Compound 65]	0.1 to 1
O=S(=O)(N[C@H]1CCN(c2cccnn2)C[C@H]1CO[C@H]1CC[C@@H](c2cccc(F)c2)CC1)N1CCC(F)(F)C1 [Compound 29]	> 1
CN(C)C1CN(S(=O)(=O)N[C@H]2CCN(c3cccnn3)C[C@H]2CO[C@H]2CC[C@@H](c3cccc(F)c3)CC2)C1 [Compound 30]	> 1
CN(C)S(=O)(=O)N[C@H]1CCN(C(=O)OCC2(F)CCC2)C[C@H]1CO[C@H]1CC[C@@H](c2cccc(F)c2)CC1 [Compound 66]	> 1
CN(CCF)S(=O)(=O)N[C@H]1CCN(c2cccnn2)C[C@H]1CO[C@H]1CC[C@@H](c2cccc(F)c2)CC1 [Compound 64]	> 1
CN(C)S(=O)(=O)N[C@H]1CCN(C(=O)c2cncs2)C[C@H]1CO[C@H]1CC[C@@H](c2cccc(F)c2)CC1 [Compound 45]	< 0.1
CN1CC2(C1)CN(S(=O)(=O)N[C@H]1CCN(c3cccnn3)C[C@H]1CO[C@H]1CC[C@@H](c3cccc(F)c3)CC1)C2 [Compound 27]	> 1
O=S(=O)(N[C@H]1CCN(c2cccnn2)C[C@H]1CO[C@H]1CC[C@@H](c2cccc(F)c2)CC1)N1CCOCC1 [Compound 15]	> 1
CN(C)S(=O)(=O)N[C@H]1CCN(C(=O)C2(F)CCC2)C[C@H]1CO[C@H]1CC[C@@H](c2cccc(F)c2)CC1 [Compound 4]	< 0.1
CN(C)S(=O)(=O)N[C@H]1CCN(C(=O)OCC2(F)CC2)C[C@H]1CO[C@H]1CC[C@@H](c2cccc(F)c2)CC1 [Compound 58]	> 1
O=S(=O)(N[C@H]1CCN(c2cccnn2)C[C@H]1CO[C@H]1CC[C@@H](c2cccc(F)c2)CC1)C1CCC1 [Compound 20]	> 1
CN(C)S(=O)(=O)N[C@H]1CCN(C(=O)c2cncn2C)C[C@H]1CO[C@H]1CC[C@@H](c2cccc(F)c2)CC1 [Compound 46]	0.1 to 1
O=S(=O)(N[C@H]1CCN(c2cccnn2)C[C@H]1CO[C@H]1CC[C@@H](c2cccc(F)c2)CC1)N1CCCC1 [Compound 26]	> 1
O=S(=O)(NC1CC1)N[C@H]1CCN(c2cccnn2)C[C@H]1CO[C@H]1CC[C@@H](c2cccc(F)c2)CC1 [Compound 17]	0.1 to 1
CN(C)S(=O)(=O)N[C@H]1CCN(C(=O)C2CCC(F)(F)C2)C[C@H]1CO[C@H]1CC[C@@H](c2cccc(F)c2)CC1 (stereo partly drawn) [Compound 13]	> 1
COC(=O)N1CC[C@H](NS(=O)(=O)N(C)C)[C@H](CO[C@H]2CC[C@@H](c3cccc(F)c3)CC2)C1 [Compound 16]	> 1
CN(C)S(=O)(=O)N[C@H]1CCN(C(=O)N2CCOCC2)C[C@H]1CO[C@H]1CC[C@@H](c2cccc(F)c2)CC1 [Compound 55]	< 0.1
O=S(=O)(N[C@H]1CCN(c2cccnn2)C[C@H]1CO[C@H]1CC[C@@H](c2cccc(F)c2)CC1)N1CC(Cl)C1 [Compound 31]	> 1
CN(C1CC1)S(=O)(=O)N[C@H]1CCN(c2cccnn2)C[C@H]1CO[C@H]1CC[C@@H](c2cccc(F)c2)CC1 [Compound 9]	0.1 to 1
CN(C)S(=O)(=O)N[C@H]1CCN(C(=O)c2ccnn2C)C[C@H]1CO[C@H]1CC[C@@H](c2cccc(F)c2)CC1 [Compound 49]	> 1
CN1CCN(S(=O)(=O)N[C@H]2CCN(c3cccnn3)C[C@H]2CO[C@H]2CC[C@@H](c3cccc(F)c3)CC2)CC1 [Compound 24]	> 1
O=S(=O)(N[C@H]1CCN(c2cccnn2)C[C@H]1CO[C@H]1CC[C@@H](c2cccc(F)c2)CC1)C1CC1 [Compound 10]	< 0.1
